The values that follow come from US8771723B2, “Compositions for reducing gastro-intestinal methanogenesis in ruminants” (priority 2009, dated 2014).

Several values for one entry are separate records, joined by “and”; a condition that tells them apart may be missing. Equal entries are not always repeated. Marks after values point to notes of the source that are not given here.

The subject of data set [1] is methane emissions from enteric fermentation. The data set can be described thus: Methane production in indirect respiration calorimetry chambers. Particulars: for Actual decrease in methane production as CH4 mass: CH4=0.714 g/l; for Methane production rate over 24 h versus control: fed once daily, nitrate: immediately after feeding, SO4: entire 24 h-period; for Actual decrease in methane production / Reduction in daily methane production: respiration chambers; for Actual decrease in methane production: 24.9 g NO3 or 27.0 g SO4 consumed per day; for Reduction in daily methane production: addition to the diet. Type of data set: in vivo, male Texel Cross lambs. From the text:
Feed intake and growth were monitored during the experiment. […] After the adaptation period four animals (one block) were housed in indirect respiration calorimetry chambers for a week to determine gaseous exchange. In the following weeks a new block of sheep was introduced to the chambers each week. Each respiration chamber housed an individual sheep. The respiration calorimetry chambers used are described in detail in […] et al. (1987). […] Net production or consumption of these gases was calculated from the difference in concentrations between in and outgoing air multiplied by air flow and subsequently recalculated to standard circumstances (0° C., 101 kPa, no water vapour). […] Animals were blocked by weight and subsequently within a block randomly allotted to one of four dietary treatments: CON, NO3, SO4 or NO3+SO4. During the adaptation phase, sheep were introduced to the experimental premixes in steps of 25% per week. […] Before morning feeding, orts were removed from the feed bins and weighed to determine voluntary feed intake. During the week in the respiration chambers, feed availability was restricted to 95% of the feed consumed by the animal consuming the least feed within a block in the week prior to housing in the respiration chambers. Feed restriction was applied to avoid interactions between the effect of the additives on DMI and the effect on methane production.

A further data set has as its system rumen microbes. Description: In vitro rumen fermentation simulation. Type of data set: cell-based, cow. As to the method: Feed used in rumen simulation was 1 gram of dry matter and composed of grass silage (0.5 g dry matter) and commercial compound feed, 0.5 g dry matter. The treatments were as indicate in the following table: […] All the treatments were run in quadruplicates, the total number of simulation vessels being 72. […] Finally, 2 ml of fresh, strained rumen fluid was added in the serum bottles, the final volume being 40 ml. This inoculation started the actual rumen simulation. Inoculation time for each vessel was registered and taken into account when sampling and stopping the fermentation. Rumen fermentation simulation was continued for 12 hours at 37° C. […] These samples were analysed for methane to see the effect of treatments on the total methane produced by rumen bacteria during the 12 hours. The analysis was performed by gas chromatography using flame ionisation detector and pure methane and ethane as standards. NO3 and NO2 were analysed from all simulation vessels at 0, 2, 4 and 12 hours. […] NH4 was analysed from all simulation vessels at 0, 2, 4 and 12 hours. The method was colorimetric and based on phenol-hypochlorite reaction. Statistical analysis consisted of two-tailed t-tests for all measured parameters. The tests were performed against the treatment with […] and MgSO4 amendment (treatments 2 and 17). t-test was chosen to let the individual treatments be independent of the other treatments tested simultaneously.

The nature of data set [2]: Feed intake, CO2/O2 exchange and heat production in respiration chambers. Type of data set: in vivo, male Texel Cross lambs. The protocol: After the adaptation period four animals (one block) were housed in indirect respiration calorimetry chambers for a week to determine gaseous exchange. In the following weeks a new block of sheep was introduced to the chambers each week. Each respiration chamber housed an individual sheep. The respiration calorimetry chambers used are described in detail in […] et al. (1987). […] Net production or consumption of these gases was calculated from the difference in concentrations between in and outgoing air multiplied by air flow and subsequently recalculated to standard circumstances (0° C., 101 kPa, no water vapour). […] Before morning feeding, orts were removed from the feed bins and weighed to determine voluntary feed intake. During the week in the respiration chambers, feed availability was restricted to 95% of the feed consumed by the animal consuming the least feed within a block in the week prior to housing in the respiration chambers. Feed restriction was applied to avoid interactions between the effect of the additives on DMI and the effect on methane production.

Data set [3] is described as follows: Methemoglobin content of blood during adaptation period. The protocol:
Blood was sampled at d2, d8, d15, d22 and d28 at 1, 3 and 5 h post-feeding. […] Blood samples were taken in heparin containing collection tubes (Vacutainers) and stored in the refrigerator directly after sampling. At the end of the sampling day, samples were dispatched for analyses and were analyzed the next day.

For data set [4] the following is noted: cited from earlier work.
The nature of data set [5]: Blood methaemoglobin in cows supplemented with nitrate and sulphate. The format is in vivo. As to the method: The experiment was a randomized block design, with 4 animals per block and different sulphate doses as treatments. Animals were blocked by milk yield and subsequently within a block randomly allotted to one of four dietary treatments: NO3, NO3+low SO4, NO3+medium SO4, NO3+high SO4.
The dietary additives were included in the premix (table 5). At feeding, the premixes were delivered to cows as part of a Total Mixed Ration. Water was freely available during the experiment.
Blood was sampled 3 h post-feeding twice a week throughout the experiment to closely monitor the concentration of methaemoglobin. Blood was collected into evacuated tubes containing heparin, plunged immediately into ice-cold water and stored in a refrigerator at 4 C. At the end of each sampling day, samples were dispatched for analysis and were analyzed the next day.

Another data set deals with methanogens. Description: Enteric methanogen counts. Particulars: in vivo.
A short description of data set [6]: Feed intake and growth during the 4-week adaptation to dietary nitrate and sulphate. The format is in vivo, male Texel Cross lambs. Particulars: for Feed intake: main effect, additive in diet (Yes); for Effect on body weight gain: adaptation stage; for Body weight (BW) / Body weight gain (BWG) overall / Body weight gain (BWG): main effect (Yes); for Body weight gain (BWG) overall: overall adaptation stage. An excerpt:
Feed intake and growth were monitored during the experiment. […] The Animal Care and Use Committee of the Animal Sciences Group, WUR, Lelystad approved the experimental protocol of this experiment. […] During a four-week adaptation phase to the dietary additives, animals were housed in individual calf hutches to allow individual feeding. Sheep were weighed weekly to monitor growth during the entire experiment. […] Animals were blocked by weight and subsequently within a block randomly allotted to one of four dietary treatments: CON, NO3, SO4 or NO3+SO4. […] At feeding, the premixes were hand-mixed into the diets. Water was freely available during the experiment. […] Before morning feeding, orts were removed from the feed bins and weighed to determine voluntary feed intake. During the week in the respiration chambers, feed availability was restricted to 95% of the feed consumed by the animal consuming the least feed within a block in the week prior to housing in the respiration chambers. Feed restriction was applied to avoid interactions between the effect of the additives on DMI and the effect on methane production. […] Limestone was added to the control diet to ensure equal Ca-intake between treatments. MgO was included in the diet to obtain similar Mg-levels between diets. The volume of the different additions to the diets was different for each treatment, and wood cellulose was used to balance for this.

Turning to 5Ca(NO3)2•NH4NO3•10H2O [Nitrate], the “Actual decrease in methane production as CH4 mass” value in data set [1] is on record as 5.8 g. Also, the “Methane production rate over 24 h versus control” value in data set [1] was “remained at a far lower level”. Besides, the “Actual decrease in methane production” value in data set [1] came to 8.1 L. In data set [1], the “Reduction in daily methane production” value is recorded as 34%. The “suppression of absolute methane production” value with rumen microbes (12-hour simulation (FIG. 5A)) was roughly 80%. The same compound gave a total produced methane with rumen microbes (12-hour simulation, 14 mM nitrate) of 1.5 mL. In the data set on rumen microbes (12 hours, 14 mM nitrate added (FIG. 8C)), the “residual concentration of ammonium” value is 18 mM. Besides, the “Oxygen consumption lower than control” value in data set [2] (directly after feeding at 8 AM) is listed as 10-18%. Further, the “MetHb-levels estimated from oxygen consumption” value in data set [2] (regression equation of Takahashi et al., 1998) is “approximately 5%”. Moreover, the “Reduction in oxygen consumption” value in data set [2] (respiration chambers, daily) is recorded as 6%. The “blood MetHb-content” value in data set [3] (75% of the inclusion rate, 3 h post feeding, one sheep tested positive) was 3 % of Hb. In data set [3] (100% inclusion rate for one week (d28), 3 h post-feeding, two individual sheep tested positive, listed as NO3), the MetHb-values is 7 % of Hb and 3 % of Hb. Further, the “MetHb-levels, highest observed” value in data set [3] (whole experiment, detection limit 2% of Hb) was ≤ 7 % of Hb. Moreover, in data set [4] (Sar et al. (2004), 0.9 g NO3/kg^0.75 of BW intraruminally, no adaptation), the MetHb-levels was 18.4 % of Hb. Also, the “rise in blood methaemoglobin” value in data set [5] (100% inclusion rate of nitrate) is given as “more pronounced”. In addition, the Blood methaemoglobin in data set [5] (cows, diets with 3% NO3 of DM and increasing SO4 (table 5)) is on record as 13.1^a % of haemoglobin. The “effect on enteric methanogen counts” value in the data set with methanogens is given as “reduce enteric methanogen counts”. Further, the Feed intake amounted to 2686 g/lamb/day in data set [6] (Week 1 of adaptation), 2591 g/lamb/day in data set [6] (Week 2 of adaptation), 2526 g/lamb/day in data set [6] (Week 3 of adaptation) and 2411 g/lamb/day in data set [6] (Week 4 of adaptation). In addition, the “Effect on body weight gain” value in data set [6] is “did not affect body weight gain”. Besides, the “Body weight (BW)” value in data set [6] (day 0) is on record as 43.0 kg/lamb; in data set [6] (day 7), 43.6 kg/lamb; in data set [6] (day 14), 44.7 kg/lamb; in data set [6] (day 21), 45.2 kg/lamb; in data set [6] (day 28), 45.5 kg/lamb. For the same compound, the “Body weight gain (BWG) overall” value in data set [6] was 2.46 kg/lamb/week. Moreover, in data set [6] (period beyond week 1 (more than 25% of final inclusion rate)), the Feed intake reduction result is “approximately 9%”. Moreover, the “Body weight gain (BWG)” value was found to be 0.54 kg/lamb/week in data set [6] (week 1), 1.08 kg/lamb/week in data set [6] (week 2), 0.59 kg/lamb/week in data set [6] (week 3) and 0.25 kg/lamb/week in data set [6] (week 4).

Consider `O=[N+]([O-])[O-].[Na+]` [NaNO3, reference compound], for which the “Concentrations of MetHb” value in data set [4] (Takahashi et al., 1998, 1.5 g/kg BW^0.75 into the rumen) is listed as “over 30%”.

Regarding `O=S(=O)([O-])[O-].[Mg+2]` [Sulphate, MgSO4 (anhydrous)], the “Actual decrease in methane production as CH4 mass” value in data set [1] is given as 2.9 g. In data set [1], the “Methane production rate over 24 h versus control” value is “consistently lower than the control treatment”. For the same compound, the “Actual decrease in methane production” value in data set [1] stood at 4 L. Moreover, in data set [1], the “Reduction in daily methane production” value was determined as 19%. Also, in the data set with methanogens, the “effect on enteric methanogen counts” value is “does not”. The Feed intake in data set [6] (Week 1 of adaptation) was determined as 2724 g/lamb/day; in data set [6] (Week 2 of adaptation), 2770 g/lamb/day; in data set [6] (Week 3 of adaptation) it was 2618 g/lamb/day; in data set [6] (Week 4 of adaptation) it was 2457 g/lamb/day. Besides, the “Effect on body weight gain” value in data set [6] is reported as “did not affect body weight gain”. The “Body weight (BW)” value in data set [6] (day 0) was 42.4 kg/lamb; in data set [6] (day 7), 43.1 kg/lamb; in data set [6] (day 14), 44.3 kg/lamb; in data set [6] (day 21) it was 44.7 kg/lamb; in data set [6] (day 28) it was 44.8 kg/lamb. In addition, the “Body weight gain (BWG) overall” value in data set [6] is listed as 2.34 kg/lamb/week. Moreover, the “Body weight gain (BWG)” value in data set [6] (week 1) stood at 0.70 kg/lamb/week; in data set [6] (week 2), 1.20 kg/lamb/week; in data set [6] (week 3) it was 0.38 kg/lamb/week; in data set [6] (week 4), 0.06 kg/lamb/week.

On to `CC(O)C(=O)O` (centres unmarked) [lactic acid, Na-lactate], for which the “gas production, initial” value in the data set with rumen microbes (first 4 hours, compared to the nitrate enriched treatment (Calcinit + MgSO4)) is reported as “suppressed”. The “cumulative gas production, later time points” value with rumen microbes (later time points up to 12 h, compared to Calcinit + MgSO4) was “continued to suppress gas production dose dependently”.
